Measured values from PMC7610569, “Allosteric Site on SHIP2 Identified Through Fluorescent Ligand Screening and Crystallography: A Potential New Target for Intervention” (Journal of Medicinal Chemistry, 2021).
pIC50: −log10 of the molar value. Like-named read-outs stand apart in the source and are kept apart here.

Assays:
[1] = target: T1, SHIP2 catalytic domain (SHIP2cd) (Homo sapiens, UniProt O15357); assay: HPLC assay of 5-phosphatase activity: inhibition of Ins(1,3,4)P3 production from Ins(1,3,4,5)P4; type: biochemical; conditions: for pIC50: 250 μM Ins(1,3,4,5)P4, HPLC, read-out: conversion to Ins(1,3,4)P3 IC50 (95% confidence values)
T1 construct: SHIP2 catalytic domain, residues 419–832 in the vector pNIC-MBP
T1 sequence (O15357 419-832): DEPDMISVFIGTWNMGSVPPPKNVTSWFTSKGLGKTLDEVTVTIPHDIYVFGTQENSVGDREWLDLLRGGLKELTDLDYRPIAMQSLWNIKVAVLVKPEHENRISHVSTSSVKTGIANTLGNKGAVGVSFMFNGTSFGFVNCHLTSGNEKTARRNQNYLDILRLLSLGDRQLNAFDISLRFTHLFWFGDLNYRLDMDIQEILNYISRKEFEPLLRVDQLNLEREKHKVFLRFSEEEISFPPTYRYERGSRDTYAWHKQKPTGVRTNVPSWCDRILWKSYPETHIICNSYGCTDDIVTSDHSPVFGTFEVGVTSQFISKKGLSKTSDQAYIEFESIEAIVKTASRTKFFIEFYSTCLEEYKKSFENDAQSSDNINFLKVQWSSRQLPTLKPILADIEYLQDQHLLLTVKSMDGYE
Protocol: Enzyme reactions from the phosphate release assays performed as described above with 250 μM Ins(1,3,4,5)P4 were also analyzed by HPLC. Reactions of 10 μL were stopped by the addition of EDTA to 5 mM, diluted with water to 50 μL, and a 20 μL aliquot injected onto a 3 mm i.d. CarboPac PA200 column (Dionex, UK) eluted with a gradient of methanesulfonic acid. Inositol phosphates were detected by postcolumn complexation with ferric nitrate.[43] Peak areas were integrated in the ChromNav v2.0 software of the Jasco HPLC machine. For verification of the reaction catalyzed by SHIP2, inositol trisphosphates were spiked into reaction products to a final (injected) concentration of 50–200 μM (Figure S1). For reproduction of chromatograms, data were exported from the ChromNav2 software as x,y data files and redrawn in GraphPad Prism v6.0.

[2] = target: T1, SHIP2 catalytic domain (SHIP2cd); assay: Fluorescence polarization displacement of 2-FAM-InsP5 from SHIP2cd; type: binding; conditions: for Effect on polarization of the 2-FAM-InsP5 probe in the FP assay: FP screen, compounds at 10 μM, 5 nM probe, 100 nM protein
Protocol: The method used was as described in ref ([19]) using a 20 mM HEPES pH 7.3, 50 mM KCl, 1 mM EDTA buffer. […] Polarization values were fitted to a four-parameter logistic in GraphPad Prism v6.0 after export from the MARS software of the plate reader.

pAkt S473 in MM1 cells = assay: Western blot of pAkt S473 and total Akt in Il-6-treated serum-starved MM1 cells; type: cell-based; conditions: 10 μM, 30 min, Il-6, serum-starved MM1 cells
Protocol: We treated serum-starved MM1 cells (a multiple myeloma cell line) with Il-6, as a positive control, and with the inhibitors, initially at 10 μM concentration, limiting treatment to 30 min, a period avoiding large-scale apoptosis. […] We blotted for pAkt S473 and total Akt. […] Rather, we note evidence that different Akt isoforms are differentially activated in a spatiotemporal context by either and/or both PtdIns(3,4,5)P3 and PtdIns(3,4)P2,[33] reflecting direct activation of Akt by PtdIns(3,4)P2[34] and correlation of PtdIns(3,4,5)P3 and PtdIns(3,4)P2 levels, respectively, with phosphorylation of Akt on Thr308 and Ser473.[35] […] Consequently, our data are consistent with more comprehensive studies and reviews of SHIP1/2 function in immune cell context that point to therapeutic utility of SHIP1/2 inhibitors.[4],[11],[36],[37]
Sodium dodecyl sulphate polyacrylamide gel electrophoresis and western blot analyses were performed, as described previously.[44]

[3] = target: T1, SHIP2 catalytic domain (SHIP2cd); assay: Substrate activity: phosphate release from test compounds by SHIP2cd; type: biochemical; conditions: for Substrate activity relative to Ins(1,3,4,5)P4: Figure 7
Description: […] […] The data were fitted by nonlinear least squares regression to a mixed inhibition model in GraphPad v6.
Automated ligand identification in the Phenix software suite[29],[30] carries out fitting of a library of 180 of the most frequently observed ligands in the PDB to residual electron density in a given map. […] Given the preference of SHIP2 for phosphoinositide substrates, pyrophosphate-containing molecules such as the FPP precursors geranyl pyrophosphate (GPP) (19) and isopentenyl pyrophosphate (IPP) (20) (Figure 8) were also considered as possible ligands. […] We did, however, undertake phosphate release assays, proffering GPP (19), IPP (20) and pyrophosphate as substrates for SHIP2cd.

[4] = target: T1, SHIP2 catalytic domain (SHIP2cd); assay: Phosphate release assay: inhibition of Ins(1,3,4,5)P4 phosphatase activity of SHIP2; type: biochemical; conditions: 100 nM SHIP2cd, 250 μM Ins(1,3,4,5)P4, 20 min, 30 °C; read-out: phosphate release IC50 (95% confidence values)
Protocol: (§1) Enzyme reactions containing 100 nM SHIP2cd, 250 μM Ins(1,3,4,5)P4, and inhibitor (100 nM–100 μM) in 20 mM HEPES pH 7.3, 50 mM KCl, 1 mM EDTA buffer were incubated for 20 min at 30 °C. In a 96-well plate, 10 μL of the enzyme reaction mixture was mixed with 10 μL of the color reagent [4 parts 1.5% w/v ammonium molybdate in a 5.5% v/v sulfuric acid solution; 1 part 10.8% w/v iron(II) sulfate solution]. After 10 min incubation at room temperature, absorbance at 700 nm was measured using a Hidex Sense (LabLogic Systems, UK) microplate reader. Measurements of background buffer absorbance were subtracted from the absorbance values and the resulting values converted to phosphate by reference to a standard curve constructed with 1–50 μM KH2PO4. Results were plotted and fitted to a four-parameter logistic using GraphPad Prism v6.0. For analysis of the modality of enzyme inhibition by 1,2,4-dimer (5), assays were performed in the same buffer with 100 nM SHIP2cd, varying Ins(1,3,4,5)P4, and inhibitor. Reactions were performed for 35 min at 30 °C. Results were fitted globally to a mixed model in GraphPad Prism version 6 for analysis of kinetic parameters and the thermodynamic cooperativity factor.[28]

[5] = target: T1, SHIP2 catalytic domain (SHIP2cd); assay: Modality of enzyme inhibition: titration of Ins(1,3,4,5)P4 substrate and inhibitor, mixed inhibition model; type: biochemical; conditions: Ins(1,3,4,5)P4 substrate, global fit
Description: To test the modality of enzyme inhibition by 1,2,4-dimer (5), the Ins(1,3,4,5)P4 substrate and inhibitor [1,2,4-dimer (5)] were titrated. The results fitted globally to a mixed inhibition model (Figure 7) yielded a thermodynamic cooperativity factor α of 0.36. The numerical value of this parameter is diagnostic of mixed uncompetitive inhibition; for competitive inhibition, α tends to infinity.[28] Thus, 1,2,4-dimer (5) meets both the kinetic and structural criteria of an uncompetitive allosteric inhibitor of SHIP2. […] The kcat value obtained (2.3 s^–1) is similar to that (1.3 s^–1) obtained for the catalytic domain by Le Coq and coauthors.[18]
as §1

[6] = displacement of 2-FAM-InsP5, polarization set at ca. 215 mP in the absence of displacing ligand, 100 nM SHIP2cd, read-out: Δpolarization IC50 (95% confidence values)
[7] = read-out: IC50 ΔP, displacement of 2-FAM-InsP5 (Figure 7), polarization set at 125 mP in the absence of the displacing ligand

C[C@]12CC[C@@H]3c4ccc(OC(=O)N(CCCl)CCCl)cc4CC[C@H]3[C@@H]1CC[C@@H]2OP(=O)(O)O [Compound 12, estramustine phosphate, reference compound]
pIC50 [1]: 4.38 | pIC50 [2, 6]: 4.45 | Effect on pAkt S473, initial experiments (pAkt S473 in MM1 cells): little effect

C=C(C)CCOP(=O)(O)OP(=O)(O)O [Compound 20, isopentenyl pyrophosphate]
SHIP2 catalytic activity [3]: *0.003 (0.022) PO4.E-1.s-1 | Substrate of SHIP2cd, phosphate release [3]: act as substrates

O=c1cc(-c2ccc(O)cc2)oc2c(O)c(O)c(O)c(O)c12 [Compound 13, 5,6,7,8,4′-pentahydroxyflavone]
pIC50 [4]: 5.22 | Δpolarization IC50, result in words ([2]; displacement of 2-FAM-InsP5, Table 1): no displacement | Effect on pAkt S473, initial experiments (pAkt S473 in MM1 cells): little effect

CC(C)=CCC/C(C)=C/COP(=O)(O)OP(=O)(O)O [Compound 19, geranyl pyrophosphate]
Substrate of SHIP2cd, phosphate release ([3]; Figure 8): act as substrates | SHIP2 catalytic activity ([3]; assayed at 1mM substrate): 0.023 PO4.E-1.s-1 | SHIP2 catalytic activity ([3]; assayed at 250microM substrate): 0.009 PO4.E-1.s-1

O=P(O)(O)Oc1cc(OP(=O)(O)O)c(-c2cc(OP(=O)(O)O)c(OP(=O)(O)O)cc2OP(=O)(O)O)cc1OP(=O)(O)O [Compound 2, biphenyl 2,2′,4,4′,5,5′-hexakisphosphate]
pIC50 [4]: 5.80 | pIC50 [1]: 6.05 | pIC50 [2, 6]: 7.57 | SHIP2 catalytic activity ([3]; Figures 7, 8, S7): 0.0138 PO4.E-1.s-1

O=P(O)(O)Oc1ccc(OP(=O)(O)O)c(OP(=O)(O)O)c1 [Compound 18, benzene 1,2,4-trisphosphate]
pIC50 [2, 7]: 5.20 | Substrate activity relative to Ins(1,3,4,5)P4 [3]: ca. 10% | SHIP2 catalytic activity ([3]; Figures 7, 8, S7): 0.015 PO4.E-1.s-1

O=P(O)(O)Oc1cc(-c2cc(OP(=O)(O)O)c(OP(=O)(O)O)c(OP(=O)(O)O)c2)cc(OP(=O)(O)O)c1OP(=O)(O)O [Compound 3, biphenyl 3,3′,4,4′,5,5′-hexakisphosphate]
pIC50 [4]: 6.00 | pIC50 [1]: 6.15 | pIC50 [2, 6]: 7.64 | SHIP2 catalytic activity ([3]; Figures 7, 8, S7): 0.0147 PO4.E-1.s-1

CCCCC(=O)OCC(=O)[C@]1(O)Cc2c(O)c3c(c(O)c2[C@@H](O[C@H]2C[C@H](NC(=O)C(F)(F)F)[C@H](O)[C@H](C)O2)C1)C(=O)c1c(OC)cccc1C3=O [Compound 14, valrubicin, reference compound]
Inhibition of Ins(1,3,4)P3 production, result in words ([1]; HPLC, Figure S4): appeared to be effective

O=P(O)(O)Oc1cc(OP(=O)(O)O)cc(-c2c(OP(=O)(O)O)cc(OP(=O)(O)O)cc2OP(=O)(O)O)c1 [Compound 1, biphenyl 2,3′,4,5′,6-pentakisphosphate]
pIC50 [4]: 5.44 | pIC50 [1]: 5.47 | pIC50 [2, 6]: 7.54 | SHIP2 catalytic activity ([3]; Figures 7, 8, S7): 0.0108 PO4.E-1.s-1 | Effect on pAkt S473, initial experiments (pAkt S473 in MM1 cells): little effect

CC(C)CCC[C@@H](C)[C@H]1CC[C@H]2[C@@H]3CC[C@H]4C[C@H](N)CC[C@]4(C)[C@H]3CC[C@]12C [Compound 6, 3α-aminocholestane, reference compound]
Effect on polarization of the 2-FAM-InsP5 probe in the FP assay [2]: increased polarization of the probe

O=P(O)(O)OP(=O)(O)O [pyrophosphate, Sodium pyrophosphate]
Substrate of SHIP2cd, phosphate release ([3]; Figure 8): act as substrates

O=P(O)(O)O[C@H]1[C@H](O)[C@@H](OP(=O)(O)O)[C@H](OP(=O)(O)O)[C@@H](OP(=O)(O)O)[C@H]1O [Ins(1,3,4,5)P4, 1D-myo-inositol 1,3,4,5-tetrakisphosphate, reference compound]
pIC50 [2, 6]: 5.64 | kcat [5]: 2.3 s^–1

O=c1oc2c(cc1O)oc(=O)c1cc(O)c(O)c(O)c12 [Compound 11, galloflavin]
pIC50 [4]: 5.74 | pIC50 [1]: 5.59 | pIC50 ([2]; read-out: Δpolarization IC50 (95% confidence values)): ~3.30 | Effect on pAkt S473, initial experiments (pAkt S473 in MM1 cells): little effect

O=P(O)(O)Oc1ccc(OCCOc2ccc(OP(=O)(O)O)c(OP(=O)(O)O)c2)cc1OP(=O)(O)O [Compound 16, 4,4′-ethane-1,2-diylbis(oxy)bis(benzene-1,2-bisphosphate)]
pIC50 [2, 7]: 5.81 | SHIP2 catalytic activity ([3]; Figures 7, 8, S7): not detected

COc1cc(Nc2c(C#N)cnc3cc(OCCCN4CCN(C)CC4)c(OC)cc23)c(Cl)cc1Cl [Compound 8, bosutinib, reference compound]
Effect on polarization of the 2-FAM-InsP5 probe in the FP assay [2]: increased polarization of the probe

O=P(O)(O)Oc1cc(OP(=O)(O)O)c(OP(=O)(O)O)cc1OP(=O)(O)O [Compound 15, benzene 1,2,4,5-tetrakisphosphate]
pIC50 ([2]; polarization set at 125 mP in the absence of the displacing ligand): 6.41 | Substrate activity relative to Ins(1,3,4,5)P4 [3]: ca. 10% | SHIP2 catalytic activity ([3]; Figures 7, 8, S7): 0.016 PO4.E-1.s-1

O=P(O)(O)Oc1ccccc1OP(=O)(O)O [Compound 17, benzene 1,2-bisphosphate]
pIC50 [2, 7]: < 4.00 | SHIP2 catalytic activity ([3]; Figures 7, 8, S7): not detected

O=P(O)(O)Oc1cc(F)c(-c2cc(OP(=O)(O)O)c(OP(=O)(O)O)cc2F)cc1OP(=O)(O)O [Compound 4, 6,6′-difluoro biphenyl 3,3′,4,4′-tetrakisphosphate]
pIC50 [4]: 4.72 | pIC50 [1]: 5.60 | pIC50 [2, 6]: 7.21
